T/C data for 24 compounds are collected here from PubChem BioAssay AID256 (DTP/NCI, 2004).

The test system of this experiment is CD2F1 mice, L1210 leukemia ip, survival T/C. Description: NCI In Vivo Anticancer Drug Screen. Data for tumor model L1210 Leukemia (intraperitoneal) in CD2F1 (CDF1) mice. To be noted: higher = longer survival. The essentials:
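Transplantable tumor in mice; compound-treated vs vehicle-treated groups. Read-out = treated/control ratio of the measured endpoint.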

The mark [1] stands for this setting: endpoint: mean survival time, dose: 100.0 mg/kg/injection, schedule: Q01DX001 (ip), vehicle: saline with Tween-80.
Where [2] appears, read: endpoint: mean survival time, dose: 200.0 mg/kg/injection, schedule: Q01DX001 (ip), vehicle: saline with Tween-80.
[3] abbreviates: endpoint: mean survival time, dose: 400.0 mg/kg/injection, schedule: Q01DX001 (ip), vehicle: saline with Tween-80.
Where [4] appears, read: endpoint: mean survival time, dose: 100.0 mg/kg/injection, schedule: Q01DX009 (ip), vehicle: saline with Tween-80.
Setting [5] is: endpoint: mean survival time, dose: 100.0 mg/kg/injection, schedule: Q04DX002 (ip), vehicle: saline with Tween-80.
Setting [6] is: endpoint: mean survival time, dose: 100.0 mg/kg/injection, schedule: Q04DX003 (ip), vehicle: saline with Tween-80.
[7] abbreviates: endpoint: mean survival time, dose: 200.0 mg/kg/injection, schedule: Q01DX009 (ip), vehicle: saline with Tween-80.
Setting [8] is: endpoint: mean survival time, dose: 200.0 mg/kg/injection, schedule: Q04DX002 (ip), vehicle: saline with Tween-80.
The mark [9] stands for this setting: endpoint: mean survival time, dose: 200.0 mg/kg/injection, schedule: Q04DX003 (ip), vehicle: saline with Tween-80.
Where [10] appears, read: endpoint: mean survival time, dose: 400.0 mg/kg/injection, schedule: Q01DX009 (ip), vehicle: saline with Tween-80.
[11] abbreviates: endpoint: mean survival time, dose: 400.0 mg/kg/injection, schedule: Q04DX002 (ip), vehicle: saline with Tween-80.
[12] abbreviates: endpoint: mean survival time, dose: 400.0 mg/kg/injection, schedule: Q04DX003 (ip), vehicle: saline with Tween-80.
Setting [13] is: endpoint: mean survival time, dose: 50.0 mg/kg/injection, schedule: Q04DX002 (ip), vehicle: saline with Tween-80.

SMILES strings stand for the structures. Several values for one entry are separate records, joined by “and”; a condition that tells them apart may be missing. Equal entries are not always repeated. Toxic doses and inconclusive results are not listed.

For `CC1(C)COC(c2ccc(-c3ccc(C4=NC(C)(C)CO4)cc3)cc2)=N1`, the T/C by setting is: under setting [1], 105 % of control; under setting [2], 100 % of control; under setting [3], 100 % of control.

As to `C[n+]1ccccc1/C=C/c1ccccn1`, the T/C was 97 % of control (endpoint: mean survival time, dose: 5.3 mg/kg/injection, schedule: Q01DX009 (ip), vehicle: saline with Tween-80); 95 % of control (endpoint: mean survival time, dose: 6.25 mg/kg/injection, schedule: Q04DX003 (ip), vehicle: saline); 100 % of control (endpoint: mean survival time, dose: 8.0 mg/kg/injection, schedule: Q01DX009 (ip), vehicle: saline with Tween-80); 100 % of control (endpoint: mean survival time, dose: 12.0 mg/kg/injection, schedule: Q01DX009 (ip), vehicle: saline with Tween-80); 98 % of control (endpoint: mean survival time, dose: 12.5 mg/kg/injection, schedule: Q04DX003 (ip), vehicle: saline); 92 % of control (endpoint: mean survival time, dose: 18.0 mg/kg/injection, schedule: Q01DX009 (ip), vehicle: saline with Tween-80). Besides, the T/C (endpoint: mean survival time, dose: 25.0 mg/kg/injection, schedule: Q04DX003 (ip), vehicle: saline) was 92 % of control.

On to `N#C/C(=C\C=C\c1cccc([N+](=O)[O-])c1)c1ccccc1`, for which the T/C runs as follows: under setting [1], 96 % of control; under setting [4], 100 % of control and 103 % of control; under setting [5], 102 % of control; under setting [6], 97 % of control; under setting [2], 105 % of control; under setting [7], 96 % of control and 107 % of control. Besides, the T/C reads like this: under setting [8], 98 % of control; under setting [9], 105 % of control; under setting [3], 97 % of control; under setting [10], 94 % of control and 100 % of control; under setting [11], 100 % of control; under setting [12], 94 % of control.

Consider `COc1ccc2[nH]c3c(c2c1)CSc1ccccc1-3`, for which the T/C was 94 % of control (endpoint: mean survival time, dose: 100.0 mg/kg/injection, schedule: Q04DX003 (ip), vehicle: acetone); 105 % of control (endpoint: mean survival time, dose: 200.0 mg/kg/injection, schedule: Q04DX003 (ip), vehicle: acetone); 100 % of control (endpoint: mean survival time, dose: 400.0 mg/kg/injection, schedule: Q04DX003 (ip), vehicle: acetone).

`COc1ccc(NC(=S)N(C)C)cc1`: the T/C under setting [6] is 94 % of control, the T/C under setting [9] is 90 % of control and the T/C under setting [12] was 92 % of control.

Take `O=C1OC(=O)C2C3OC(C4CN=NC43)C12` (configuration not stated): the T/C under setting [5] is 112 % of control and the T/C under setting [8] is 118 % of control.

Consider `CCOC(CCCO)OCC`, for which the T/C under setting [5] is 103 % of control, the T/C under setting [8] is 100 % of control and the T/C under setting [11] is 103 % of control.

For `CCCCOC(=O)CCC(NC(=O)c1ccc(N(C)Cc2cnc3nc(N)nc(N)c3n2)cc1)C(=O)OCCCC` (configuration not stated), the T/C is 108 % of control (endpoint: mean survival time, dose: 0.09 mg/kg/injection, schedule: Q01DX009 (ip), vehicle: distilled water + Tween-80); 113 % of control and 91 % of control (endpoint: mean survival time, dose: 0.19 mg/kg/injection, schedule: Q01DX009 (ip), vehicle: distilled water + Tween-80); 108 % of control (endpoint: mean survival time, dose: 0.75 mg/kg/injection, schedule: Q01DX009 (ip), vehicle: distilled water + Tween-80); 89 % of control (endpoint: mean survival time, dose: 1.5 mg/kg/injection, schedule: Q01DX009 (ip), vehicle: distilled water + Tween-80).

Take `Cc1cn(CC(O)c2cc3ccccc3[nH]2)c(=O)[nH]c1=O` (configuration not stated): the T/C under setting [5] was 97 % of control, the T/C under setting [8] was 97 % of control and the T/C under setting [11] was 93 % of control.

With `NC(=O)c1ccc(OC(F)(F)C(F)Cl)cc1OC(F)(F)C(F)Cl` (configuration not stated), the T/C was 96 % of control (endpoint: mean survival time, dose: 25.0 mg/kg/injection, schedule: Q04DX002 (ip), vehicle: saline with Tween-80); 101 % of control under setting [13]; 101 % of control under setting [5].

As for `CC1(C)C/C(=C\c2ccccc2)C(=O)c2ccccc21`, the T/C was 104 % of control (endpoint: mean survival time, dose: 100.0 mg/kg/injection, schedule: Q01DX009 (ip), vehicle: other); 112 % of control (endpoint: mean survival time, dose: 200.0 mg/kg/injection, schedule: Q01DX009 (ip), vehicle: other); 96 % of control (endpoint: mean survival time, dose: 400.0 mg/kg/injection, schedule: Q01DX009 (ip), vehicle: other).

Consider `CNCCNc1ccc(NCCNC)c2c1C(=O)c1ccccc1C2=O`, for which the T/C runs as follows: (endpoint: mean survival time, dose: 4.0 mg/kg/injection, schedule: Q01DX009 (ip), vehicle: acid diluted with saline) 150 % of control and 157 % of control; (endpoint: mean survival time, dose: 8.0 mg/kg/injection, schedule: Q01DX009 (ip), vehicle: acid diluted with saline) 187 % of control and 195 % of control; (endpoint: mean survival time, dose: 16.0 mg/kg/injection, schedule: Q01DX009 (ip), vehicle: acid diluted with saline) 177 % of control.

`CC(=O)OC(C(=O)NC(CC(C)C)C(=O)O)c1ccccc1` (configuration not stated): the T/C runs as follows: under setting [6], 98 % of control; under setting [9], 95 % of control; under setting [12], 103 % of control.

As to `CCS/C(SC)=C(/c1ccccc1)[P+](c1ccccc1)(c1ccccc1)c1ccccc1`, the T/C reads like this: (endpoint: median survival time, dose: 1.5 mg/kg/injection, schedule: Q01DX009 (ip), vehicle: Klucel (hydroxypropylcellulose) (HPC)) 111 % of control; (endpoint: median survival time, dose: 3.0 mg/kg/injection, schedule: Q01DX009 (ip), vehicle: Klucel (hydroxypropylcellulose) (HPC)) 114 % of control.

As for `O=[N+]([O-])c1ccc(Sc2ccncn2)c([N+](=O)[O-])c1`, the T/C was 101 % of control (endpoint: median survival time, dose: 6.25 mg/kg/injection, schedule: Q01DX009 (ip), vehicle: saline with Tween-80); 102 % of control (endpoint: median survival time, dose: 12.5 mg/kg/injection, schedule: Q01DX009 (ip), vehicle: saline with Tween-80); 103 % of control (endpoint: median survival time, dose: 25.0 mg/kg/injection, schedule: Q01DX009 (ip), vehicle: saline with Tween-80); 105 % of control (endpoint: median survival time, dose: 50.0 mg/kg/injection, schedule: Q01DX009 (ip), vehicle: saline with Tween-80); 113 % of control (endpoint: median survival time, dose: 100.0 mg/kg/injection, schedule: Q01DX009 (ip), vehicle: saline with Tween-80).

Consider `C/C=C\C=C\C(=O)O`, for which the T/C was 100 % of control under setting [4], 97 % of control under setting [7] and 100 % of control under setting [10].

Regarding `Nc1nc(=O)n(CCCOc2cccc(NC(=O)c3ccccc3)c2)cc1-c1ccc(Cl)c(Cl)c1`, the T/C is, setting by setting: under setting [1], 91 % of control; under setting [2], 94 % of control; under setting [3], 97 % of control.

As for `CC(=O)NC1C(OC(C)=O)OC(COC(c2ccccc2)(c2ccccc2)c2ccccc2)C(O)C1OC(C)=O` (configuration not stated), the T/C is 93 % of control (endpoint: mean survival time, dose: 12.5 mg/kg/injection, schedule: Q04DX002 (ip), vehicle: saline with Tween-80); 103 % of control (endpoint: mean survival time, dose: 12.5 mg/kg/injection, schedule: Q04DX003 (ip), vehicle: saline with Tween-80); 95 % of control (endpoint: mean survival time, dose: 25.0 mg/kg/injection, schedule: Q04DX003 (ip), vehicle: saline with Tween-80); 88 % of control (endpoint: mean survival time, dose: 50.0 mg/kg/injection, schedule: Q01DX001 (ip), vehicle: saline with Tween-80); 91 % of control under setting [13]; 87 % of control (endpoint: mean survival time, dose: 50.0 mg/kg/injection, schedule: Q04DX003 (ip), vehicle: saline with Tween-80). Further, the T/C under setting [1] was 87 % of control; the T/C under setting [5] is 88 % of control; the T/C under setting [6] was 93 % of control; the T/C under setting [2] is 88 % of control; the T/C under setting [3] was 90 % of control.

On to `O=Cc1cccc(O)c1O`, for which the T/C under setting [6] is 96 % of control, the T/C under setting [9] was 102 % of control and the T/C under setting [12] was 103 % of control.

In the case of `O=C1C(=O)c2ccccc2C(O)=C1CNCCO`, the T/C runs as follows: under setting [1], 97 % of control; under setting [2], 94 % of control; under setting [3], 94 % of control.

Turning to `C[Si](C)(C)Oc1ccc(OCc2ccccc2)cc1`, the T/C runs as follows: under setting [13], 87 % of control; under setting [5], 87 % of control; under setting [8], 95 % of control; under setting [11], 95 % of control.

Consider `COc1ccc(NC(=O)Nc2cc(Cl)c(OC)cc2OC)cc1`, for which the T/C runs as follows: under setting [5], 93 % of control; under setting [8], 86 % of control.

As to `CCOC(=O)Nc1cc2c(c(N)n1)N=C(CN(C)c1ccc(OC)cc1)CN2`, the T/C (endpoint: mean survival time, dose: 0.78 mg/kg/injection, schedule: Q01DX009 (ip), vehicle: Klucel (hydroxypropylcellulose) (HPC)) was 118 % of control.

For the compound `C1=CC2c3ccc4ccccc4c3C(c3ccccc3)C2C=C1` (configuration not stated), the T/C is, setting by setting: under setting [6], 108 % of control; under setting [9], 96 % of control; under setting [12], 102 % of control.
